# According to PMC9043997, “LEAP2 reduces postprandial glucose excursions and ad libitum food intake in healthy men” (Cell Reports Medicine, 2022):
# Where a SMILES comes first, the peptide text is derived from it. Bridges are numbered along the chain shown (N, C = ends).
# How the values were obtained:
# healthy men [1] = assay: Plasma glucose during LEAP2 infusion with liquid mixed meal test, crossover study; format: in vivo, human; settings: mean ± SEM
# Source text: The infusion was terminated when participants had finished eating.
# For analysis of plasma glucose, blood was distributed in fluoride heparin-coated tubes, centrifuged immediately for 30 s (12,100 g, room temperature) and measured bedside by the glucose oxidase method (YSI 2900 Biochemistry Analyzer; YSI Incorporated, Yellow Springs, Ohio, USA). For analysis of LEAP2, blood was collected in chilled K3EDTA tubes each containing 250 KIU of aprotinin. For analysis of acyl ghrelin, blood was collected in chilled K2EDTA tubes added 20 μL pefabloc (100 mg/mL; Merck Millipore, Burlington, Massachusetts, USA). Subsequently, pefabloc-treated plasma was acidified with HCl (12.5 μL 2M HCl per 500 μL plasma; Merck Millipore, Burlington, Massachusetts, USA). For analysis of glucagon, blood was collected in K2EDTA tubes. For analysis of GH, insulin, C-peptide, free fatty acids, glycerol, triglycerides and acetaminophen (paracetamol), blood was collected in tubes with lithium and heparin. All tubes were immediately cooled on ice, centrifuged for 15 min (2,000 g, 4°C) and stored at −80°C until analysis. LEAP2 concentrations were determined by an in-house radioimmunoassay directed against the N-terminal part of LEAP2. LEAP-2 was used for standards, and the tracer was a peptide composed of the 12 N-terminal amino acids of LEAP2, with a ^125I-labelled tyrosine added to the C-terminal end. The precision and accuracy of the assay were evaluated based on European Medicines Agency's guidelines for bioanalytical assay validation. […] Due to supply chain disruptions from the COVID-19 pandemic, acyl ghrelin was only measured in plasma samples at timepoints 0, 60, 105, 165 and 255 min. […] Plasma GH was measured by Immunodiagnostic system-iSYS assay (IS-3700; IDS Limited, Boldon, UK). The assay is based on chemiluminesence technology and was performed according to the manufacturer’|'s instructions. […] For analysis of glucagon, plasma was extracted in a final concentration of 70% ethanol. Glucagon was measured using a C-terminal directed antiserum (code number 4305) measuring glucagon of pancreatic origin as previously described.[40] […] Plasma insulin and C-peptide were measured using a two-sided electrochemiluminescence immunoassay (Atellica IM Analyzer; Siemens Healthcare, Ballerup, Denmark). Plasma triglycerides and acetaminophen were analyzed by spectrophotometric methods following enzymatic hydrolysis and oxidation (Siemens Atellica CH 930; Siemens Healthcare, Ballerup, Denmark). Plasma concentrations of free fatty acids and glycerol were determined by enzymatic methods modified to run on a COBAS 6000 automatic analyzer (Roche, Rødovre, Denmark) using a NEFA-HR assay (Wako Chemicals, Neuss, Germany) and glycerol assay (Randox Laboratories, Crumlin, UK), respectively.
# Unless otherwise stated, results are presented as mean ± SEM. Baseline values were calculated as a mean of timepoints −35, −10 and 0 min or, when only available −10 and 0 min. Baseline values for the postprandial period were calculated as a mean of timepoint 60 min. Calculations of AUC were based on the trapezoidal rule. AUC values are reported for the period 0 to 255 min. To assess the fasting and postprandial periods separately, AUC values are reported for the periods 0 to 60 min and 60 to 255 min, respectively. Student’s paired t test was used to test for differences in baseline, peak, time to peak, AUC and mean values and ad libitum food intake in men.
# healthy men [2] = assay: Plasma glucose and VAS ratings during the pharmacokinetic study; format: in vivo, human
# Description: Eight healthy men, recruited among participants in the placebo-controlled, crossover study, were included in an additional clinical study investigating the kinetic parameters of exogenous LEAP2. Each participant underwent a single experimental day with intravenous infusion of LEAP2 (10 min at a rate of ∼101 pmol/kg/min followed by 110 min at ∼25 pmol/kg/min) (see Figure S1B for an overview of the clinical study design). […] Fasting schedule for participants and all instructions from 48 h prior to the experimental day were similar to the placebo-controlled, crossover study. […] LEAP2 infusion was started at timepoint 0 min and discontinued after 120 min. Blood samples were drawn every 15 min from timepoint −30 to 270 min and, additionally, at timepoints 118, 122, 124, 127 and 130 min. Plasma glucose was measured bedside every 15 min from timepoint −30 to 180 min and every 30 min from timepoint 180 to 270 min with a mean concentration of 4.85 ± 0.02 mmol/L. For analytical procedures related to plasma glucose and LEAP2 concentrations, please see the section “Human plasma analyses”. Every 30 min from time −30 to 270 min, participants rated appetite-related sensations on 100 mm VAS[34] with a score (median (interquartile range)) for hunger of 72 (59–79) mm, prospective food consumption 73 (65–82) mm, satiety 22 (14–33) mm, fullness 21 (12–31) mm, comfort 78 (72–90) mm, thirst 78 (71–89) mm and nausea 3.0 (0–9.0).
# wild-type mice = assay: Fasting insulin and plasma glucose after subcutaneous LEAP2 in fasted wild-type mice; format: in vivo, mouse; settings: fasted female wild-type mice, LEAP2 3 μmol/kg subcutaneous
# Description: For fasting insulin and glucose concentrations, females (15 weeks of age) were used. Mice were housed four mice per cage. On the experimental day, mice were fasted from four hours before subcutaneous administration until end of the study and randomized by body weight into either vehicle (saline) or LEAP2 dosing (3 μmol/kg). Blood samples were collected at timepoints −60, 20 and 60 min from the retro-orbital vein plexus using EDTA-coated capillary tubes. Plasma was subsequently separated from the blood after centrifugation (3,000 g, 4°C, 5 min) and stored at −80°C until analysis. Blood glucose was measured at timepoints −60, 20 and 60 min from eye blood and at timepoint 0 min from a tail puncture by use of the same glucometer (Contour ™xt meter; Ascensia Diabetes Care, Basel, Switzerland). Mouse plasma insulin concentrations were determined by use of a Mouse/Rat Insulin Kit (cat: K152BZC-1; Meso Scale Discovery, Gaithersburg, Maryland, USA). The assay was performed according to the manufacturer’s instructions, and the plate was measured by use of MESO QuickPlex SQ 120.
# [3] = healthy men n = 20, iv LEAP2 ~25 pmol/kg/min, liquid mixed meal at 65 min
# [4] = healthy fasting men n = 8, -30 to 270 min, median (interquartile range)
smiles,measurement,setting,value
"CC[C@H](C)[C@@H]1NC(=O)[C@@H]2CSSC[C@@H](C(=O)N[C@@H](CO)C(=O)N[C@@H](CC(C)C)C(=O)N[C@@H](CO)C(=O)N[C@H](C(=O)N[C@@H](C)C(=O)N[C@@H](CCC(N)=O)C(=O)N[C@@H](CCC(=O)O)C(=O)O)C(C)C)NC(=O)[C@H](CCCNC(=N)N)NC(=O)[C@H](CCCNC(=N)N)NC(=O)[C@H](CCCCN)NC(=O)[C@H](CCCNC(=N)N)NC(=O)[C@H](CSSC[C@H](NC(=O)[C@H](CO)NC(=O)[C@H](C)NC(=O)CNC(=O)[C@@H](NC(=O)[C@@H]3CCCN3C(=O)[C@H](CCCNC(=N)N)NC(=O)[C@H](CC(C)C)NC(=O)[C@H](CO)NC(=O)[C@@H](NC(=O)CNC(=O)[C@H](CCCNC(=N)N)NC(=O)[C@H](Cc3c[nH]c4ccccc34)NC(=O)[C@H](Cc3ccccc3)NC(=O)[C@@H]3CCCN3C(=O)[C@@H](NC(=O)[C@@H](N)CCSC)[C@@H](C)O)C(C)C)[C@@H](C)CC)C(=O)N[C@@H](CCCNC(=N)N)C(=O)N[C@@H](CC(=O)O)C(=O)N[C@@H](CC(=O)O)C(=O)N[C@@H](CO)C(=O)N[C@@H](CCC(=O)O)C(=O)N2)NC(=O)[C@H](CC(C)C)NC(=O)[C@H](CCCNC(=N)N)NC(=O)[C@H]([C@@H](C)O)NC1=O [LEAP2, liver-expressed antimicrobial peptide 2] (H-MTPFWRGVSLRPIGASCRDDSECITRLCRKRRCSLSVAQE-OH; disulfide 17-28, 23-33 (inferred); N-terminus and C-terminus assumed)",Glucose Baseline,"healthy men [1]; healthy men n = 20, LEAP2 day, before infusion (mean of -35, -10, 0 min)",5.02 ± 0.06 mmol/L
same,Glucose AUC,"healthy men [1]; healthy men n = 20, iv LEAP2 ~25 pmol/kg/min, 0 to 255 min, trapezoidal","1,288 ± 13.4 mmol/L × min"
same,Glucose Postprandial end,"healthy men [1]; healthy men n = 20, iv LEAP2 ~25 pmol/kg/min, after liquid mixed meal",4.48 ± 0.11 mmol/L
same,plasma glucose AUC 0–60 min,"healthy men [1]; healthy men n = 20, iv LEAP2 ~25 pmol/kg/min, fasting period",295 ± 3.02 mmol/L/min
same,Glucose Peak,healthy men [1]; [3],6.21 ± 0.12 mmol/L
same,Glucose Time to peak,healthy men [1]; [3],140 ± 12.7 min
same,Glucose AUC60–255 min,"healthy men [1]; healthy men n = 20, iv LEAP2 ~25 pmol/kg/min, postprandial period after liquid mixed meal",992 ± 12.4 mmol·min/L
same,Glucose Postprandial baseline,"healthy men [1]; healthy men n = 20, iv LEAP2 ~25 pmol/kg/min, time = 60 min",4.96 ± 0.05 mmol/L
same,plasma glucose mean concentration during the pharmacokinetic study,"healthy men [2]; healthy fasting men n = 8, -30 to 270 min, LEAP2 infusion 0 to 120 min",4.85 ± 0.02 mmol/L
same,VAS comfort,healthy men [2]; [4],78 (72–90) mm
same,VAS fullness,healthy men [2]; [4],21 (12–31) mm
same,VAS prospective food consumption,healthy men [2]; [4],73 (65–82) mm
same,VAS satiety,healthy men [2]; [4],22 (14–33) mm
same,VAS thirst,healthy men [2]; [4],78 (71–89) mm
same,VAS hunger,"healthy men [2]; healthy fasting men n = 8, every 30 min from -30 to 270 min, LEAP2 infusion 0 to 120 min, median (interquartile range)",72 (59–79) mm
same,fasting plasma glucose concentrations vs vehicle,wild-type mice,did not affect fasting plasma glucose concentrations
same,fasting insulin concentrations vs vehicle,wild-type mice; 20 and 60 min,no effect
